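Growth conditions: 96-well plates. Treatment: test compound, 48 hours, 5 concentrations. Analysis: linear interpolation between bracketing concentrations; unreached endpoints set to highest concentration. The concentration for 50% growth inhibition is given as GI50.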 The source made the active and inactive calls. Cut-off read from the data, not from the text of the source: active = GI50 up to about 1.1 µM and inactive = higher.
Columns and labels:
Experiment in all cases: NCI-60 cell line screen, 48 h
786-0 = system: 786-0
ACHN = system: ACHN
BT-549 = system: BT-549
CAKI-1 = system: CAKI-1
CCRF-CEM = system: CCRF-CEM
COLO 205 = system: COLO 205
DU-145 = system: DU-145
EKVX = system: EKVX
HCC 2998 = system: HCC 2998
HCT-116 = system: HCT-116
HCT-15 = system: HCT-15
HL-60 = system: HL-60
HOP-62 = system: HOP-62
HOP-92 = system: HOP-92
HT-29 = system: HT-29
IGROV-1 = system: IGROV-1
K562 = system: K562
KM12 = system: KM12
LOX IMVI = system: LOX IMVI
M14 = system: M14
MCF7 = system: MCF7
MDA-MB-231 = system: MDA-MB-231
MDA-MB-435 = system: MDA-MB-435
MDA-N = system: MDA-N
MOLT-4 = system: MOLT-4
Malme-3M = system: Malme-3M
NCI-H226 = system: NCI-H226
NCI-H23 = system: NCI-H23
NCI-H460 = system: NCI-H460
NCI-H522 = system: NCI-H522
NCI/ADR-RES = system: NCI/ADR-RES
OVCAR-3 = system: OVCAR-3
OVCAR-4 = system: OVCAR-4
OVCAR-5 = system: OVCAR-5
OVCAR-8 = system: OVCAR-8
PC-3 = system: PC-3
RPMI-8226 = system: RPMI-8226
RXF 393 = system: RXF 393
SF-268 = system: SF-268
SF-295 = system: SF-295
SF-539 = system: SF-539
SK-MEL-28 = system: SK-MEL-28
SK-MEL-2 = system: SK-MEL-2
SK-MEL-5 = system: SK-MEL-5
SN12C = system: SN12C
SNB-19 = system: SNB-19
SNB-75 = system: SNB-75
SR = system: SR
SW-620 = system: SW-620
T47D = system: T47D
TK-10 = system: TK-10
U-251 = system: U-251
UACC-257 = system: UACC-257
UACC-62 = system: UACC-62
UO-31 = system: UO-31
A498 = system: A498
A549 = system: A549
Hs-578T = system: Hs-578T
SK-OV-3 = system: SK-OV-3

In the case of `Cc1ccc(C2CC(=O)CC(c3ccc(C)cc3)C23C(=O)NC(=O)NC3=O)cc1` (stereo not given), the GI50 (786-0) is reported as > 100 µM (inactive), the GI50 (ACHN) is reported as > 100 µM (inactive) and the GI50 (BT-549) is reported as > 100 µM (inactive). For the same compound, the GI50 (CAKI-1) was > 100 µM (inactive), the GI50 (CCRF-CEM) was > 100 µM (inactive) and the GI50 (COLO 205) was > 100 µM (inactive). For the same compound, the GI50 (DU-145) was > 100 µM (inactive), the GI50 (EKVX) was > 100 µM (inactive) and the GI50 (HCC 2998) was > 100 µM (inactive). The GI50 (HCT-116) was > 100 µM (inactive), the GI50 (HCT-15) was over 100 µM and the GI50 (HL-60) was > 10 µM (inactive). For the same compound, the GI50 (HOP-62) was 28.9 µM (inactive), the GI50 (HOP-92) was > 100 µM (inactive) and the GI50 (HT-29) was > 100 µM (inactive). For the same compound, the GI50 (IGROV-1) was > 100 µM (inactive), the GI50 (K562) was 40.4 µM (inactive) and the GI50 (KM12) was > 100 µM (inactive). The GI50 (LOX IMVI) was > 100 µM (inactive), the GI50 (M14) was > 100 µM (inactive) and the GI50 (MCF7) was > 100 µM (inactive). For the same compound, the GI50 (MDA-MB-231) was > 100 µM (inactive), the GI50 (MDA-MB-435) was > 100 µM (inactive) and the GI50 (MDA-N) was > 100 µM (inactive). The GI50 (MOLT-4) was 45 µM (inactive), the GI50 (Malme-3M) was > 100 µM (inactive) and the GI50 (NCI-H226) was > 100 µM (inactive). The GI50 (NCI-H23) was > 100 µM (inactive), the GI50 (NCI-H460) was > 100 µM (inactive) and the GI50 (NCI-H522) was > 100 µM (inactive). The GI50 (NCI/ADR-RES) was > 100 µM (inactive), the GI50 (OVCAR-3) was > 100 µM (inactive) and the GI50 (OVCAR-4) was 71.1 µM (inactive). For the same compound, the GI50 (OVCAR-5) was > 100 µM (inactive), the GI50 (OVCAR-8) was > 100 µM (inactive) and the GI50 (PC-3) was > 100 µM (inactive). The GI50 (RPMI-8226) was > 100 µM (inactive), the GI50 (RXF 393) was > 100 µM (inactive) and the GI50 (SF-268) was > 100 µM (inactive). For the same compound, the GI50 (SF-295) was > 100 µM (inactive), the GI50 (SF-539) was > 100 µM (inactive) and the GI50 (SK-MEL-28) was > 100 µM (inactive). The GI50 (SK-MEL-2) was > 100 µM (inactive), the GI50 (SK-MEL-5) was > 100 µM (inactive) and the GI50 (SN12C) was > 100 µM (inactive). The GI50 (SNB-19) was > 100 µM (inactive), the GI50 (SNB-75) was > 100 µM (inactive) and the GI50 (SR) was 60.1 µM (inactive). The GI50 (SW-620) was > 100 µM (inactive), the GI50 (T47D) was > 100 µM (inactive) and the GI50 (TK-10) was > 100 µM (inactive). For the same compound, the GI50 (U-251) was > 100 µM (inactive), the GI50 (UACC-257) was > 100 µM (inactive) and the GI50 (UACC-62) was > 100 µM (inactive). For the same compound, the GI50 (UO-31) was > 100 µM (inactive).
`CCOC(=O)/C(=C\NC(C)(C)CO)c1nc2ccccc2[nH]1` was tested, and the GI50 (786-0) was > 100 µM (inactive), the GI50 (A498) was 54.6 µM (inactive) and the GI50 (A549) was 86.5 µM (inactive). The GI50 (ACHN) was 27.2 µM (inactive), the GI50 (BT-549) was > 100 µM (inactive) and the GI50 (CAKI-1) was > 100 µM (inactive). The GI50 (CCRF-CEM) was 35.6 µM (inactive), the GI50 (COLO 205) was 58.9 µM (inactive) and the GI50 (DU-145) was > 100 µM (inactive). For the same compound, the GI50 (EKVX) was > 100 µM (inactive), the GI50 (HCC 2998) was 46.2 µM (inactive) and the GI50 (HCT-116) was > 100 µM (inactive). The GI50 (HCT-15) was 81.7 µM, the GI50 (HL-60) was 44.5 µM (inactive) and the GI50 (HOP-62) was > 100 µM (inactive). For the same compound, the GI50 (HOP-92) was 77.4 µM (inactive), the GI50 (HT-29) was 88.7 µM (inactive) and the GI50 (Hs-578T) was 34.4 µM (inactive). The GI50 (IGROV-1) was 41.5 µM (inactive), the GI50 (K562) was 75 µM (inactive) and the GI50 (KM12) was 75 µM (inactive). The GI50 (LOX IMVI) was > 100 µM (inactive), the GI50 (M14) was > 100 µM (inactive) and the GI50 (MCF7) was 86.3 µM (inactive). For the same compound, the GI50 (MDA-MB-435) was > 100 µM (inactive), the GI50 (MDA-N) was > 100 µM (inactive) and the GI50 (MOLT-4) was 43.3 µM (inactive). For the same compound, the GI50 (Malme-3M) was > 100 µM (inactive), the GI50 (NCI-H23) was 67.8 µM (inactive) and the GI50 (NCI-H460) was 36.1 µM (inactive). For the same compound, the GI50 (NCI-H522) was 61.7 µM (inactive), the GI50 (NCI/ADR-RES) was 79.6 µM (inactive) and the GI50 (OVCAR-3) was > 100 µM (inactive). For the same compound, the GI50 (OVCAR-4) was 94 µM (inactive), the GI50 (OVCAR-5) was > 100 µM (inactive) and the GI50 (OVCAR-8) was 74.8 µM (inactive). For the same compound, the GI50 (RPMI-8226) was 30.8 µM (inactive), the GI50 (RXF 393) was > 100 µM (inactive) and the GI50 (SF-268) was 81.5 µM (inactive). For the same compound, the GI50 (SF-295) was 64.6 µM (inactive), the GI50 (SF-539) was > 100 µM (inactive) and the GI50 (SK-MEL-28) was 77.8 µM (inactive). For the same compound, the GI50 (SK-MEL-5) was 26.7 µM (inactive), the GI50 (SK-OV-3) was > 100 µM (inactive) and the GI50 (SN12C) was > 100 µM (inactive). The GI50 (SNB-19) was > 100 µM (inactive), the GI50 (SNB-75) was > 100 µM (inactive) and the GI50 (SR) was 47.3 µM (inactive). The GI50 (SW-620) was > 100 µM (inactive), the GI50 (TK-10) was 63.8 µM (inactive) and the GI50 (UACC-257) was > 100 µM (inactive). The GI50 (UACC-62) was 43.5 µM (inactive) and the GI50 (UO-31) was 0.426 µM (active).
For `COc1ccc(C2CC(c3ccc(NS(=O)(=O)c4cc([N+](=O)[O-])ccc4C)cc3)=NN2S(=O)(=O)c2cc([N+](=O)[O-])ccc2C)cc1` (stereo not given), the GI50 (786-0) was 88.5 µM (inactive), the GI50 (A498) was 49.3 µM (inactive) and the GI50 (A549) was 34.5 µM (inactive). For the same compound, the GI50 (ACHN) was 63.4 µM (inactive), the GI50 (BT-549) was 36 µM (inactive) and the GI50 (CAKI-1) was 54.2 µM (inactive). The GI50 (CCRF-CEM) was 65.2 µM (inactive), the GI50 (COLO 205) was 51.4 µM (inactive) and the GI50 (DU-145) was > 100 µM (inactive). For the same compound, the GI50 (EKVX) was 39.7 µM (inactive), the GI50 (HCC 2998) was 10.5 µM (inactive) and the GI50 (HCT-116) was 32.7 µM (inactive). The GI50 (HCT-15) was 36.2 µM, the GI50 (HL-60) was 51.6 µM (inactive) and the GI50 (HOP-62) was 80 µM (inactive). For the same compound, the GI50 (HOP-92) was 34.3 µM (inactive), the GI50 (HT-29) was 50.4 µM (inactive) and the GI50 (IGROV-1) was 44.4 µM (inactive). For the same compound, the GI50 (K562) was 36.1 µM (inactive), the GI50 (KM12) was 46 µM (inactive) and the GI50 (LOX IMVI) was 68.1 µM (inactive). For the same compound, the GI50 (M14) was 41.1 µM (inactive), the GI50 (MCF7) was 39 µM (inactive) and the GI50 (MDA-MB-231) was 43.6 µM (inactive). The GI50 (MDA-MB-435) was 46 µM (inactive), the GI50 (MDA-N) was 35.8 µM (inactive) and the GI50 (MOLT-4) was 33.3 µM (inactive). For the same compound, the GI50 (Malme-3M) was 34.8 µM (inactive), the GI50 (NCI-H226) was > 100 µM (inactive) and the GI50 (NCI-H23) was 22.4 µM (inactive). The GI50 (NCI-H460) was 32.4 µM (inactive), the GI50 (NCI-H522) was 22.3 µM (inactive) and the GI50 (NCI/ADR-RES) was 40.8 µM (inactive). The GI50 (OVCAR-3) was 33.4 µM (inactive), the GI50 (OVCAR-4) was 40 µM (inactive) and the GI50 (OVCAR-5) was > 100 µM (inactive). For the same compound, the GI50 (OVCAR-8) was 71.9 µM (inactive), the GI50 (PC-3) was 33.8 µM (inactive) and the GI50 (RPMI-8226) was 23.6 µM (inactive). For the same compound, the GI50 (RXF 393) was > 100 µM (inactive), the GI50 (SF-268) was 22.8 µM (inactive) and the GI50 (SF-295) was 33 µM (inactive). The GI50 (SK-MEL-28) was > 100 µM (inactive), the GI50 (SK-MEL-2) was 35.6 µM (inactive) and the GI50 (SK-MEL-5) was 42.2 µM (inactive). The GI50 (SK-OV-3) was 85.3 µM (inactive), the GI50 (SN12C) was 43.5 µM (inactive) and the GI50 (SNB-19) was 61.2 µM (inactive). For the same compound, the GI50 (SNB-75) was > 100 µM (inactive), the GI50 (SR) was 51.4 µM (inactive) and the GI50 (SW-620) was 72.9 µM (inactive). For the same compound, the GI50 (T47D) was 71.4 µM (inactive), the GI50 (TK-10) was 52.6 µM (inactive) and the GI50 (U-251) was 36.8 µM (inactive). The GI50 (UACC-257) was 30.6 µM (inactive), the GI50 (UACC-62) was 26.4 µM (inactive) and the GI50 (UO-31) was 32.1 µM (inactive).
